Measurements: US20260258397A1, “REAGENTS AND SYSTEMS FOR […]” (priority 2023, published 2026)
Values joined by “and” are separate entries in the source; they are usually repeats but may differ in a detail not shown here. Equal values may be shown once. Read-outs that look alike come from different tables or passages of the source.

What was measured:
PYR1^4F-M = molecular target: T1, PYR1^4F-M (Arabidopsis thaliana, UniProt O49686, A160G/F159V/H115Q/H60P/N90S/Y120G); assay: PYR1 ELISA-like plate assay, immobilized PYR1^4F-M with biotinylated ΔN-HAB1^T+; format: binding; conditions: PYR1^4F-M ELISA-like format
T1 construct: made in house; host or cells: E. coli
Protocol: PYR1 was immobilized overnight in clear plates, blocked with KPL milk diluent in buffer CBS ^17 (CBSM). All binding reactions were performed using CBSM. Detection was performed via binding a streptavidin-HRP conjugate to biotinylated ΔN-HAB1^T+ followed by incubation with a commercial TMB reagent. Lower limits of detection (LODs) were determined by linear regression of the response data in the low linear range using the formula LOD=3σy/m, where m is the slope of the response line and σy is the standard error of the y intercept using data combined from biological replicates.
Unconjugated 6×His-MBP-PYR1 variants were immobilized to Microlon clear plates (655081) using 100 μL of CBS without pH modification, at a protein concentration of 100 μg mL^−1, or 1.57 AM at 4° C. overnight. Wells assigned as no PYR controls received only CBS. Plates were sealed using Microseal B adhesive sealers (BioRad MSB-1001). […] The pellet was stored on ice until the blocked and washed plates were ready to receive the binding reactions. ΔN-HAB1^T+ was exchanged into CBSM with 1 mM DTT and 1 mM TCEP (CBSM++) using Zeba™ spin desalting columns (Thermo) were equilibrated with CBSM++. ΔN-HAB1^T+ was diluted to 10× the final binding reaction concentration and was immediately added to the pre-assembled assays in PCR plates, which were mixed by pipetting and transferred to the washed, blocked Microlon plates. […]

PYR1^DIAZI = molecular target: T2, PYR1^DIAZI (Arabidopsis thaliana, UniProt O49686, A160V/E8G/F108Y/F159G/L87M/M158V/V81Y); assay: cell-based; conditions: for Bottom: fit bottom of GFP fluorescence response; for Top: fit top of GFP fluorescence response
T2 construct: expressed in transfected cells; host or cells: S. cerevisiae (2µ plasmid)
T2 sequence (O49686 1-191 E8G/V81Y/L87M/F108Y/M158V/F159G/A160V): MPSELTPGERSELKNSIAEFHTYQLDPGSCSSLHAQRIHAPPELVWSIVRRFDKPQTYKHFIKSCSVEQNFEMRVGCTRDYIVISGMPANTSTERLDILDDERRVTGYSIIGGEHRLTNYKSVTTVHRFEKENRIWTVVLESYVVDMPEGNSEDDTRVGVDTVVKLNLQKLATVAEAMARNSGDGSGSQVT
T2 sequence (Q9CAJ0 178-511 partner): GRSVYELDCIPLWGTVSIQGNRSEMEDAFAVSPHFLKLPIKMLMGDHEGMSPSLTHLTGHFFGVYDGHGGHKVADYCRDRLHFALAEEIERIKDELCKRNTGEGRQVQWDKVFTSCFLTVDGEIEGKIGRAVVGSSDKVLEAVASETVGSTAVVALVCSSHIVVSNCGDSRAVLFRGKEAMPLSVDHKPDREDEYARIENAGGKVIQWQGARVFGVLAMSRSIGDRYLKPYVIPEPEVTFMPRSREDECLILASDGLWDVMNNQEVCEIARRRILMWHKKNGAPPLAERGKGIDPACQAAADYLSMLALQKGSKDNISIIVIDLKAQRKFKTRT
Excerpt: (§1) PYR1 variants were used to drive gene expression in an inducible genetic circuit by fusing a zinc finger DNA binding domain (Z4^32) to the N-terminus of PYR1, and the VP64 activation domain 33 to the N-terminus of ΔN-HAB1. The SV40 nuclear localization signal was also fused to the N-terminus of PYR1. A single 2u plasmid was used to express SV40-Z4DBD-PYR1 and VP64-HAB1, while the GFP expression cassette (Z44-CYCcore-GFP-CYC 1term) was integrated at the YPRCΔ15 site on chromosome XVI. GFP fluorescence induced by each circuit was measured 12 h after ligand addition to 1 mL cultures, 30° C. Fluorescence was measured by flow cytometry. Briefly, 50 μL of resuspended cells were transferred to a 96-well plate for analysis. The fluorescence intensity of each cell was measured using a BD Accuri C6 flow cytometer equipped with auto-loading. The forward scatter, side scatter, and GFP fluorescence (Ex/Em 488/533 nm) were recorded for a minimum of 10,000 events.
(§2) Transformed yeast cells were acquired by first inoculating 5 mL of liquid media and incubating in a shaker incubator overnight at 30° C. Cells from the overnight culture were then used to inoculate a 50 mL culture with an initial cell density of 5×10^6 cells/mL. This culture was grown at 30° C. with 200 rpm shaking until ~2×10^7 cells/mL were produced, approximately 3 to 5 hours. Cells were harvested by centrifugation at 4000 rpm for 5 min, washed with 25 mL sterile, deionized water, resuspended in 1 mL of 100 mM LiAc, and transferred to a 1.5 mL tube, producing a cell suspension with approximately 10^9 cells/mL. The cell suspension was briefly mixed by vortexing and 100 μL was transferred into a clean 1.5 mL tube for each transformation. Cells were pelleted at 13000 rpm for 15 sec and the supernatant was removed. A transformation mixture of 240 μL PEG (50% w/v), 36 μL 1.0 M LiAc, 50 μL salmon sperm DNA (2.0 mg/ml), plasmid, and sterile water were added to the cell pellet and mixed by vortexing for 1 min (total volume of 360 μL). The mixed transformation solution was then heat shocked at 42° C. for 40 min. Post heat-shock, cells were recovered by centrifugation at 8000 rpm for 30 sec. Cells resuspended in 400 μL sterile water were plated on appropriate selection media, in this case agar-SD media without uracil. Plates were incubated at 30° C. until mature colonies were formed.
(§3) Three single transformants were picked from selection plates, inoculated in 2 mL of SD-Ura containing 2% glucose in 14 mL culture tubes. After 24 hours of growth at 30° C. in a shaker incubator (200 rpm), the OD600 of each sample was measured and cultures were back diluted to OD600=0.2 in fresh SD-Ura, the total volume of diluted culture was 9 mL. Each 9 mL culture was separated into 8 unique cultures by transferring 1 mL into 8 different wells of a 96 deep-well plate. Each well was used to evaluate the effect of a specific concentration of ligand. After all the cultures were transferred, 1 μL of stock ligand solution (each stock varying in concentration) was added to each well. The plate was sealed with an air-breathable polymer film and cultured with 1000 rpm shaking at 30° C. for 12 hours. Shaker humidity was maintained at 90%. Cells were harvested by centrifuge at 5000 g for 10 min, and after discarding the supernatant, the cells were suspended in 1 mL PBS buffer and centrifuged at 5000 g for 10 min. The cells were washed with 1 mL PBS buffer twice and resuspended in 1 mL DI water for flow cytometry analysis. For flow cytometry analysis, 50 μL of resuspended cells were transferred to a 96-well plate with flat bottom, adding DI water up to final volume 200 μL. The fluorescence intensity of cells within each sample was measured using a BD Accuri C6 flow cytometer equipped with auto-loading from 96 well plates. The forward scatter, side scatter, and GFP fluorescence (Ex/Em 488/533 nm) were recorded for a minimum of 10,000 events.

PYR1^PIRI = molecular target: T3, PYR1^PIRI (Arabidopsis thaliana, UniProt O49686, A160T/E130G/F159T/K59R/N119S/S122Q/S92M/V174A); assay: cell-based; conditions: for Bottom: fit bottom of GFP fluorescence response; for Top: fit top of GFP fluorescence response
T3 construct: expressed in transfected cells; host or cells: S. cerevisiae (2µ plasmid)
T3 sequence (O49686 1-191 K59R/S92M/N119S/S122Q/E130G/F159T/A160T/V174A): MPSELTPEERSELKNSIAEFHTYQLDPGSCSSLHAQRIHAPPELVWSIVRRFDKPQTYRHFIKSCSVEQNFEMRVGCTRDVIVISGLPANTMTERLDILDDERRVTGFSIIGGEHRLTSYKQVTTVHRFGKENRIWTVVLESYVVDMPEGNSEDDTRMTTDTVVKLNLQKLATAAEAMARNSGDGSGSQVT
T3 sequence (Q9CAJ0 178-511 partner): T2 sequence (Q9CAJ0 178-511 partner)
Excerpt: as §1, §2, §3

[1] = tested on: PYR1 mutant receptors (ligand-dependent binding to HAB1); assay: Yeast two-hybrid screens and optimization for organophosphate sensors; format: cell-based, Arabidopsis; conditions: after four rounds of recombination-based mutagenesis (PYR1^DIAZI, PYR1^PIRI)
Protocol: Surviving cells were collected and used in subsequent positive selections for ligand-responsive receptors on SD,-Leu,-Trp,-Ura media supplemented with a specific test chemical (100 μM) for responsiveness to any of the 10-member panel of organophosphate compounds: diazinon, pirimiphos-methyl, azinphos-ethyl, dimethoate, chlorfenvinphos, disulfoton, parathion-methyl, bromophos-methyl, malathion, and monocrotophos; all compounds were purchased form (Sigma-Aldrich). Isolated colonies were tested by regrowth on ligand-containing media and by dose response using X-gal staining and Sanger sequenced (see FIG. 13a-d).
Recombination-based mutagenesis of hit receptors was used to generate subsequent molecular diversity for selection-based optimization experiments, using the same general strategy across all scaffolds utilized. […] The resulting shuffled DNA fragments were cloned into pBD, transformed into E. coli, colonies collected, and plasmids extracted.

HAB1 = assay: Y2H X-gal staining of evolved sensors: ligand responsiveness and cross reaction; format: cell-based, Arabidopsis; conditions: ligands WIN 55,212-2, 4F-MDMB-BUTINACA, AB-PINACA, JWH-072; PYR1^JWH-072 to low μM WIN 55,212-2, PYR1^4F to low μM AB-PINACA
Protocol: High-affinity sensors were tested for cross reaction using both Y2H and in vitro PP2C assays. […] Similar methods were used to characterize PYR1^PIRI and PYR1^WIN sensor selectivity and sensitivity.
The PYL2 coding sequence cloned in the Y2H pBD vector was used as template to incorporate the corresponding PYR1^WIN and PYR1^4F homologous residues via site directed mutagenesis using the QuikChange Lightning Multi Site-Directed mutagenesis kit (Agilent Technologies). Resulting clones PYL2^WIN (K64Q, F165A, V1661) and PYL2^4F (H119Q, Y124G, F165V, V166G) were sequence confirmed and incorporated into MAV99 harboring pACT-HAB1 and tested for ligand activation using uracil-independent growth and X-gal staining experiments. The same method was used to generate a PYL2^WIN version in a protein expression vector for crystallization studies.

T1 sequence (O49686 whole entry H60P/N90S/H115Q/Y120G/F159V/A160G, other chains not shown): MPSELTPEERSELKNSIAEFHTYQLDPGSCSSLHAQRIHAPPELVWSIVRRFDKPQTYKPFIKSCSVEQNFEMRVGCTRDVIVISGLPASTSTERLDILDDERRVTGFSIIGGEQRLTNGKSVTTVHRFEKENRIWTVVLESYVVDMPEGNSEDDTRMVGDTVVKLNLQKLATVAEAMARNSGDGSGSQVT

Row | Molecule | Bottom (PYR1^DIAZI; PYR1-DIAZI) | Top (PYR1^DIAZI; PYR1-DIAZI) | Bottom (PYR1^PIRI; PYR1-PIRI) | Top (PYR1^PIRI; PYR1-PIRI) | ligand concentration to which optimized sensors respond [1] | further results
1 | COC(=O)[C@@H](NC(=O)c1nn(CCCCF)c2ccccc12)C(C)(C)C [4F-MDMB, 4F-MDMB-BUTINACA] | – | – | – | – | – | average LOD from two biological replicates (PYR1^4F-M): 6 nM and 2.2 ng/ml
2 | CCOP(=S)(OCC)Oc1cc(C)nc(C(C)C)n1 [Diazinon, diazinon] | 17196 | 103999 | 19123 | 109997 | 10 nM | EC50 (PYR1^DIAZI; PYR1-DIAZI, no unit in table (text b82 gives the same values in nM), read-out: EC50): 43.1 nM; EC50 (PYR1^DIAZI; PYR1^DIAZI, yeast-transcription circuit, read-out: EC50): 43 nM; EC50 to diazinon lower than all other molecules profiled (PYR1^DIAZI; PYR1^DIAZI, selectivity versus panel of chemically similar organophosphates): greater than 10 fold; EC50 (PYR1^PIRI; PYR1-PIRI, no unit in table (text b82 gives the same values in nM/μM), read-out: EC50): 1010 nM; EC50 (PYR1^PIRI; PYR1^PIRI, yeast-transcription circuit, strongest off-target response, read-out: EC50): 1000 nM; EC50 higher than that with pirimiphos (PYR1^PIRI; PYR1^PIRI, off-target diazinon versus pirimiphos): 50 fold
3 | CCN(CC)c1nc(C)cc(OP(=S)(OC)OC)n1 [Pirimiphos, pirimiphos-methyl] | 14673 | 88148 | 12745 | 105951 | 10 nM | EC50 (PYR1^DIAZI): 17400 nM; EC50 (PYR1^PIRI): 20 nM
4 | PYR1^JWH-072: PYR1 variant sensor for JWH-072; cannabinoid receptor sequence (MPSGLTPEERSELKNSIAEFHTYQLDPGSCSSLHAQRIHAPPELVWSIVRRFDKPQTYN) | – | – | – | – | – | cross-reactivity to off-target cannabinoid ligands (HAB1): modest cross-reactivity
